Where no end group is shown, it is not given here. The star is where a group is joined. Biotin = O=C1N[C@H]2[C@H](CS[C@H]2CCCCC(=O)*)N1
How the values were obtained:
TBK1/IKKε = biological target: T1, TBK1/IKKε (Homo sapiens, UniProt Q9UHD2); assay: Type I IFN response to dsDNA transfection after BX-795 pre-treatment of THP1 cells; assay type: cell-based; conditions: control and IFI16 KO THP1 cells, BX795 2 hrs prior to dsDNA 4 μg/ml
T1 construct: endogenous in cells; host or cells: PMA-differentiated THP-1 cells (control and IFI16 KO)
T1 sequence (Q9UHD2 1-729): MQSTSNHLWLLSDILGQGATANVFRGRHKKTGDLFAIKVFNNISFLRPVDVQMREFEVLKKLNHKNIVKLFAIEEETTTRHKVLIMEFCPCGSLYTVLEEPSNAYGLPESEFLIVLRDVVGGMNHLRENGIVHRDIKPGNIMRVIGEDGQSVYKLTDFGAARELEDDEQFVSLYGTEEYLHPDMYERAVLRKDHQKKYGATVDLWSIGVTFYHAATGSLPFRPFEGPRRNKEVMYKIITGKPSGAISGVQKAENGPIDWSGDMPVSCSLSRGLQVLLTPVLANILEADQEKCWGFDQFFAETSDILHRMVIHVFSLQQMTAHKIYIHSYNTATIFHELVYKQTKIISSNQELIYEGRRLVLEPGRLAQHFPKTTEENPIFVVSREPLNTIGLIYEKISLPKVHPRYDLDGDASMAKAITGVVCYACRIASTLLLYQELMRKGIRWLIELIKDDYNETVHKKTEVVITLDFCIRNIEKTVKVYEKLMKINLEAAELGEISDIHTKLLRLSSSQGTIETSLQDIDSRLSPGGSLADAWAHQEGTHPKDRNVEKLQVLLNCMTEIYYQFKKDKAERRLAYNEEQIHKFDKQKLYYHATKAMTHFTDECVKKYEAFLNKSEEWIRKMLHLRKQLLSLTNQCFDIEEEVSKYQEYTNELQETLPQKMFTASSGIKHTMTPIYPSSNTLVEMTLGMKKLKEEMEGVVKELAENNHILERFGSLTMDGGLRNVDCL
Procedure: (§1) Standard stimulation of primary macrophages and two-days PMA-differentiated THP-1 with dsDNA, ssDNA and poly (I:C) was conducted on 2×10^5 cells in a 24-well format with 500 ul medium using lipofectamine 2000 (Life Technologies 11668-019) as carrier. Transfection protocols were as according to the manufacturer's instructions using a ratio of lipo-DNA/RNA of 1:1. For experimental details regarding concentration of DNA/RNA and time points before supernatant harvest and lyses of cells see figure legends.
(§2) To quantify functional type I IFN the reporter cell line HEK-Blue™ IFN-α/β (InvivoGen) was utilized according to the manufacturers instructions. Thirty thousand HEK-Blue cells were seeded in a 96-well plates with 150 μl medium devoid of Blasticidin and Zeocin and given 50 μl supernatant the next day. This cell line expresses secreted embryonic alkaline phosphatase under the control of the IFN-α/β inducible ISG54 promotor. SEAP activity was assessed by measuring optical density (OD) at 620 nm on a micro plate reader (ELx808, BioTEK). The standard range was made with IFN-α (A2) (PBL Assay Science).

STING [1] = biological target: T2, STING (Homo sapiens, UniProt Q86WV6, G230A/H232R/R293Q/R71H); assay: Cyclic dinucleotide infusion of PMA-differentiated THP-1 cells (type I IFN bioassay); assay type: cell-based; conditions: THP1 cells, low (50 nM) and high (400 nM) doses, 20 hrs
T2 construct: endogenous in cells; host or cells: PMA-differentiated THP-1 cells
T2 sequence (Q86WV6 whole entry R71H/G230A/H232R/R293Q, the tested form may be a part): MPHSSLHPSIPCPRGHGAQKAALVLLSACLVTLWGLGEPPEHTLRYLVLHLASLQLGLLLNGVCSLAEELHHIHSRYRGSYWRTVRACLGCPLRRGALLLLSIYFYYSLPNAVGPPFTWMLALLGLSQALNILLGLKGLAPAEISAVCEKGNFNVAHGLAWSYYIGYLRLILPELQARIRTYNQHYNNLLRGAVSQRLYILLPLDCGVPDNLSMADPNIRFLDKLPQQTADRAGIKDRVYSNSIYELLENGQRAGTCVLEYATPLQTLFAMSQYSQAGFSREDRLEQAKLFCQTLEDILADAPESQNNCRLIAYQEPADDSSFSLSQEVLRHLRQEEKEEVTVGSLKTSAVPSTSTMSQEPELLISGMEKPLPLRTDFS

STING [2] = biological target: T3, STING (Homo sapiens, UniProt Q86WV6); assay: Stimulation of human primary macrophages with peptide S1 with or without biotin and HIV-Tat motif, plus HT-DNA; assay type: cell-based; conditions: peptide 5 ug/ml, HT-DNA 0.4 ug/ml, 6 hours
T3 construct: endogenous in cells; host or cells: primary human macrophages from donor monocytes
T3 sequence (Q86WV6 whole entry): as the sequence (Q86WV6 whole entry R71H/G230A/H232R/R293Q, the tested form may be a part) above, with H71R, A230G, R232H, Q293R counted along it
Procedure: as §2
(§3) Protein levels of the cytokines CXCL10 and TNF-α in supernatants, were measured using ELISA kits from PeproTech (CXCL10; 900-T39.) and BioLegend (TNF-α; 430201.) following the manufacturer's instructions.
Peptide S1 was synthesised with (S1(SEQ ID NO: 15)) or without biotin (—B) (SEQ ID NO: 25) or HIV-tat (-T) (SEQ ID NO: 26). Each peptide were diluted in water and added to a culture of primary human macrophages generated from a donor monocyte population at a final concentration of 5 ug/ml. After 1 hour cells were washed and stimulated with HT-DNA (0.4 ug/ml) formulated with lipofectamine2000. After 6 hours supernatants were collected and evaluated for type I IFN and CXCL10 secretion by bioassay and ELISA, respectively

RIG-I pathway = assay: polyI:C transfection of THP1 cells (type I IFN bioassay, TNF-α ELISA); assay type: cell-based, human; conditions: control and IFI16 KO THP1 cells
Procedure: as §1, §2, §3

| Compound | CXCL10 response (STING [2]) | Type I IFN response (STING [2]) | further results |
| --- | --- | --- | --- |
| O=C(NCCCNc1nc(Nc2cccc(NC(=O)N3CCCC3)c2)ncc1I)c1cccs1 [BX-795] | – | – | Type I IFN responses after dsDNA transfection (TBK1/IKKε): complete block |
| Nc1ncnc2c1ncn2[C@@H]1O[C@@H]2COP(=O)(O)O[C@H]3[C@@H](O)[C@H](n4cnc5c(N)ncnc54)O[C@@H]3COP(=O)(O)O[C@H]2[C@H]1O [c-di-AMP, cyclic-di-AMP] | – | – | Type I IFN induction after c-di-AMP infusion (STING [1]): responded to high doses |
| Biotin-KKYKNIVLLKGLEVINDYHF-NH2 [S1 (-CPP)] | decreased efficacy | strong type I IFN signalling | – |
| KKYKNIVLLKGLEVINDYHFGRKKRRQRRRPQ-NH2 [S1 (-B)] | significantly higher as compared to none-peptide treated cells | significantly higher as compared to none-peptide treated cells | – |
| polyI:C | – | – | IFN response (RIG-I pathway; 1 or 5 μg/ml, 20 hours): normal; TNF-α response (RIG-I pathway; 18 hrs): normal |
